Assay results published in patent EP2879657B1, “NOVEL SIRT1 ACTIVATORS AND PHARMACEUTICAL OR COSMETIC COMPOSITIONS COMPRISING THEM” (Centre National de la Recherche Scientifique (C.N.R.S.), priority 2012, dated 2014).
Read-outs that look alike come from different tables or passages of the source.

Columns and labels:
[1] = tested on: adipocytes humains matures; assay: Lipolysis: glycerol released by mature adipocytes (AdipoLyze Detection Assay); assay type: cell-based; details: Adipocyte, read-out: augmentation de la quantité de glycérol secrété par les adipocytes
From the text: Les préadipocytes primaires sous-cutanés humains fournis par Lonza ont été mis en culture (10 000 cellules/puits dans des plaques de 96 puits) dans un milieu de croissance (PGM-2, Lonza, PT-9502) pendant une nuit. A J1, les cellules ont été mises dans le milieu de différenciation pendant 12 jours pour acquérir les caractéristiques des adipocytes matures. […]

Sirt1 = target: T1, Sirt1 (Homo sapiens, UniProt Q96EB6); assay: HTRF SIRT1 Assay (Cisbio): enzymatic activity of purified Sirt1; assay type: biochemical; details: 0.5 h; at about 2,5 µM (1 µg/ml); vs enzyme without compound; read-out: % d'augmentation de l'activité de Sirt1
T1 construct: purchased Cisbio
T1 sequence (Q96EB6 1-747): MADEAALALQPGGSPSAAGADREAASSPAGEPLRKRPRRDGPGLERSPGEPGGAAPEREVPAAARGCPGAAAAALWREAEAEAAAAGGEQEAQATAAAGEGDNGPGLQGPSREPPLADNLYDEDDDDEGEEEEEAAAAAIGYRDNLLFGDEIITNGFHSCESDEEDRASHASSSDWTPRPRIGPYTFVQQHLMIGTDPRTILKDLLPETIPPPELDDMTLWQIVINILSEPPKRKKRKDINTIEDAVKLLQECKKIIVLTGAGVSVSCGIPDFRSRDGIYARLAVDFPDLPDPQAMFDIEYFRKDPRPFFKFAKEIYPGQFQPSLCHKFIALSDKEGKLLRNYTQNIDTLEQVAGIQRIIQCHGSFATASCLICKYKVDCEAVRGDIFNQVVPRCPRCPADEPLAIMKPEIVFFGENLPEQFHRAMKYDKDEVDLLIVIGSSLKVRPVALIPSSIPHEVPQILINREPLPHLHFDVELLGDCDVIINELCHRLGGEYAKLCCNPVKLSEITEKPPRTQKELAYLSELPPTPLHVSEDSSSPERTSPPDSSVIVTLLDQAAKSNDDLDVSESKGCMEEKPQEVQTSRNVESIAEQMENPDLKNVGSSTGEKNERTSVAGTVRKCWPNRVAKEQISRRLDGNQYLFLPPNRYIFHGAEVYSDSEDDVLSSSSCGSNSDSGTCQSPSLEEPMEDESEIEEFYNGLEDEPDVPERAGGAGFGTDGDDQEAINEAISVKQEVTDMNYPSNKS
Method: L'activité enzymatique de Sirt1 a été évaluée à l'aide du kit «HTRF^R SIRT1 Assay » vendu par la Société Cisbio. Lors de ces expériences, l'enzyme purifiée a été incubée à température ambiante en présence du NAD (cofacteur) de son substrat acétylé et du composé à tester utilisé aux concentrations variant de 0,24 µM à 280 µM. « SIRT1 Activator 3 », un activateur commercial de Sirt1 a été utilisé comme un contrôle positif. Après 30 min d'incubation, la réaction enzymatique est arrêtée et la quantité de substrat acétylé restante est évaluée à l'aide d'un anticorps spécifique.
Une augmentation de l'activité enzymatique de Sirt1 en présence des composés décrits s'est traduite par une diminution de la quantité d'anticorps capable de se fixer sur le substrat et donc par une diminution de l'émission de fluorescence qui en résulte, comparé à la valeur obtenue avec l'enzyme seule. Les résultats sont exprimés en % d'augmentation de l'activité de Sirt1 par rapport à celle obtenue avec l'enzyme sans ajout des composés.

[2] = 50 µM, mature adipocytes treated 72h, culture supernatant

In the case of `CC(=O)N[C@H]1CC[C@@]2(C)C(=CC[C@H]3[C@@H]4CC[C@H]([C@H](C)NC(C)=O)[C@@]4(COC(C)=O)CC[C@@H]32)C1` (single isomer, unassigned; diac) [C3, Acétatede 3 β, 20 α-diacétamido-pregn-5-en-18-ol], the activation at 50 µM [1, 2] is reported as 18%.

Molecule `C[C@@H]([C@H]1CC[C@H]2[C@@H]3CC[C@H]4C[C@@H](O)CC[C@]4(C)[C@H]3CC[C@]12C)N(C)C` [C1, 20-(diméthylamino)-, (3β,5α,20S)-pregnan-3-ol] has an activation at 50 µM ([1]; 72 h) of 44% and an activation at 2.5 µM (Sirt1) of over 50%.

Molecule `CC(=O)N(C)[C@H]1CC[C@@]2(C)[C@@H](CC[C@@H]3[C@@H]2CC[C@]2(C)[C@@H]([C@H](C)N(C)C)CC[C@@H]32)C1` [C2, N-[(3 β, 5 α, 20S)-20-(diméthylamino)pregnan-3-yl]-N-méthyl-acétamide] has an activation at 50 µM [1, 2] of 24%.

For `CC(=O)N(C)[C@H]1CC[C@@]2(C)C(=C[C@H](O)[C@H]3[C@@H]4CC[C@@H]5[C@H](C)OC(=O)[C@@]54CC[C@@H]32)C1` [C4, Acide 3-(acétylméthylamino)-7,20-dihydroxy-, γ-lactone, (3 β, 7 β ,20S)-pregn-5-èn-18-oïque], the activation at 50 µM [1, 2] was 10% and the activation at 2.5 µM (Sirt1) was over 50%.

Molecule `CC(=O)N(C)[C@H]1CC[C@@]2(C)C(=CC(=O)[C@H]3[C@@H]4CC[C@@H]5[C@H](C)OC(=O)[C@@]54CC[C@@H]32)C1` [C5, Acide 20 α-hydroxy-3 β-(N-méthylacétamido)-7-oxo-, γ-lactone pregn-5-èn-18-oïque] has an activation at 50 µM [1, 2] of 14%.

`CC(=O)N(C)[C@H]1CC[C@@]2(C)C(=CC[C@H]3[C@@H]4CC[C@@H]5[C@H](C)N(C(C)=O)C[C@@]54CC[C@@H]32)C1` [C6, N-acétyl-3 β-(N-méthylacétamido)-norcon-5-énine] showed an activation at 50 µM [1, 2] of 41% and an activation at 2.5 µM (Sirt1) of over 50%.
